The values below are quoted from earlier work in patent US12150969B2, “Synthetically enveloped virus” (priority 2016, dated 2024).

Data set [1] deals with Ras-dependent tumor growth. As to conditions: established cancer models.
The subject of data set [2] is Ras.

Regarding `CC(C)=CCC/C(C)=C/CC/C(C)=C/CSc1ccccc1C(=O)O` [FTS, S-trans, trans-farnesylthiosalicylic acid], the “tumor growth and toxicity in animals” value in data set [1] was “inhibition of tumor growth in animals with no adverse toxicity”. In data set [2], the Ras antagonist activity entry is “potent and especially nontoxic Ras antagonist”.
